Data from BindingDB's records for doi:10.1016/j.bmcl.2006.02.063 (The University of Kansas, 2006).

Experiment: Inhibition of Her2 in SKBr3 cells by ELISA

IC50 [µM] | SMILES
31 | O=S(=O)(Nc1ccc(Cl)cc1O)c1ccccc1
61 | CC1(C)CC(=O)C2C(=Nc3ccccc3NC2c2cccc(O)c2O)C1 (stereo not drawn) [3-(1-hydroxy-3,3-dimethyl-3,4,10,11-tetrahydro-2H-dibenzo[b,e][1,4]diazepin-11-yl)-benzene-1,2-diol]
18 | COc1cc(C2CC(c3ccccc3O)N=N2)ccc1O (stereo not drawn) [6-[5-(4-hydroxy-3-methoxyphenyl)-3-pyrazolidinylidene]-1-cyclohexa-2,4-dienone]
